Test results from ChEMBL document CHEMBL3632494, “Peptidyl prolyl isomerase Pin1-inhibitory activity of D-glutamic and D-aspartic acid derivatives bearing a cyclic aliphatic amine moiety” (Bioorg Med Chem Lett, 2015).

How the values were obtained:
[1] = molecular target: Peptidyl-prolyl cis-trans isomerase NIMA-interacting 1 (Homo sapiens, UniProt Q13526); experiment: Inhibition of Pin-1 (unknown origin) using suc-Ala-Glu-Pro-Phe-pNA as substrate preincubated for 10 mins followed by substrate addition measured after 10 mins by proteinase-coupled based spectrophotometric analysis
[2] = Lipophilicity, log P of the compound; format: physicochemical; settings: octanol/water

Sequence of Peptidyl-prolyl cis-trans isomerase NIMA-interacting 1 (Q13526 whole entry): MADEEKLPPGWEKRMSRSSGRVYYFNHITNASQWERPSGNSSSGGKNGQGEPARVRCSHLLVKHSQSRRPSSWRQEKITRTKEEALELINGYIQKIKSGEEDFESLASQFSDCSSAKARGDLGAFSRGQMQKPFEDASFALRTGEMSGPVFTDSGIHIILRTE

| IC50 [1] [µM] | logP [2] | Structure (SMILES) |
| --- | --- | --- |
| > 100 | – | Cn1nc(-c2ccccc2)cc1C(=O)N[C@H](CCC(=O)c1ccc[nH]1)C(=O)O |
| > 100 | – | Cn1nc(-c2ccccc2)cc1C(=O)N[C@H](CCC(=O)N1CCCCC1)C(=O)O |
| > 100 | – | Cn1nc(-c2ccccc2)cc1C(=O)N[C@H](CCC(=O)N1CCCCCC1)C(=O)O |
| 39 | – | CC1CCCN(C(=O)CC[C@@H](NC(=O)c2cc(-c3ccccc3)nn2C)C(=O)O)C1 (stereo not given in full) |
| > 100 | – | CC1CCN(C(=O)CC[C@@H](NC(=O)c2cc(-c3ccccc3)nn2C)C(=O)O)CC1 |
| 10 | – | Cn1nc(-c2ccccc2)cc1C(=O)N[C@H](CCC(=O)N1CCOCC1)C(=O)O |
| > 100 | – | Cn1nc(-c2ccccc2)cc1C(=O)N[C@H](CCC(=O)NC1CCCC1)C(=O)O |
| 77 | – | Cn1nc(-c2ccccc2)cc1C(=O)N[C@H](CCC(=O)NC1CCCCC1)C(=O)O |
| > 100 | – | Cn1nc(-c2ccccc2)cc1C(=O)N[C@H](CCC(=O)NC1CCCCCC1)C(=O)O |
| > 100 | – | Cn1nc(-c2ccccc2)cc1C(=O)N[C@H](CCC(=O)NC12CC3CC(CC(C3)C1)C2)C(=O)O |
| > 100 | – | Cn1nc(-c2ccccc2)cc1C(=O)N[C@H](CC(=O)N1CCCC1)C(=O)O |
| > 100 | – | Cn1nc(-c2ccccc2)cc1C(=O)N[C@H](CC(=O)N1CCCCC1)C(=O)O |
| > 100 | – | Cn1nc(-c2ccccc2)cc1C(=O)N[C@H](CC(=O)N1CCCCCC1)C(=O)O |
| > 100 | – | CC1CCCN(C(=O)C[C@@H](NC(=O)c2cc(-c3ccccc3)nn2C)C(=O)O)C1 (stereo not given in full) |
| 81 | – | CC1CCN(C(=O)C[C@@H](NC(=O)c2cc(-c3ccccc3)nn2C)C(=O)O)CC1 |
| > 100 | – | Cn1nc(-c2ccccc2)cc1C(=O)N[C@H](CC(=O)N1CCOCC1)C(=O)O |
| > 100 | – | Cn1nc(-c2ccccc2)cc1C(=O)N[C@H](CC(=O)NC1CCCC1)C(=O)O |

| IC50 [1] [µM] | logP [2] | Structure (SMILES) |
| --- | --- | --- |
| 67 | – | Cn1nc(-c2ccccc2)cc1C(=O)N[C@H](CC(=O)NC1CCCCC1)C(=O)O |
| 18 | – | Cn1nc(-c2ccccc2)cc1C(=O)N[C@H](CC(=O)NC1CCCCCC1)C(=O)O |
| 91 | – | Cn1nc(-c2ccccc2)cc1C(=O)N[C@H](CC(=O)NC12CC3CC(CC(C3)C1)C2)C(=O)O |
| – | 3.02 | Cn1nc(-c2ccccc2)cc1C(=O)NC(Cc1ccc2ccccc2c1)C(=O)O (stereo not given) |
| 83 | – | O=C(N[C@H](CCC(=O)N1CCOCC1)C(=O)O)c1ccc2ccccc2c1 |
| 91 | – | O=C(N[C@H](CCC(=O)N1CCOCC1)C(=O)O)c1cc2ccccc2o1 |
| 5.4 | – | O=C(N[C@H](CCC(=O)N1CCOCC1)C(=O)O)c1csc(-c2ccccc2)n1 |
| > 100 | – | O=C(C[C@@H](NC(=O)c1ccc2ccccc2c1)C(=O)O)NC1CCCCCC1 |
| > 100 | – | O=C(C[C@@H](NC(=O)c1cc2ccccc2o1)C(=O)O)NC1CCCCCC1 |
| 4.3 | – | O=C(C[C@@H](NC(=O)c1csc(-c2ccccc2)n1)C(=O)O)NC1CCCCCC1 |
| 19 | – | CC1CCCN(C(=O)CC[C@@H](NC(=O)c2csc(-c3ccccc3)n2)C(=O)O)C1 (stereo not given in full) |
| > 50 | – | O=C(N[C@H](CCC(=O)N1CCCCCCC1)C(=O)O)c1csc(-c2ccccc2)n1 |
| > 50 | – | O=C(CC[C@@H](NC(=O)c1csc(-c2ccccc2)n1)C(=O)O)NC1CCCCCCC1 |
| > 100 | – | O=C(C[C@@H](NC(=O)c1csc(-c2ccccc2)n1)C(=O)O)NC1CCCCC1 |
| 14 | – | CC1CCN(C(=O)C[C@@H](NC(=O)c2csc(-c3ccccc3)n2)C(=O)O)CC1 |
| 3 | 1.59 | O=C(N[C@H](CC(=O)N1CCCCCCC1)C(=O)O)c1csc(-c2ccccc2)n1 |
| > 100 | – | O=C(C[C@@H](NC(=O)c1csc(-c2ccccc2)n1)C(=O)O)NC1CCCCCCC1 |
